We go through 2 molecules from ChEMBL document CHEMBL3407402, “Nintedanib: from discovery to the clinic” (J Med Chem, 2015).

A value given as a limit tells only on which side of the number the result lay.

Data set [1] in a line: Clearance in Rhesus monkey at 5 mg/kg, iv. The data set is classed as ADME, organism-based, Macaca mulatta. Details: dose 5 mg/kg, route intravenous. The following applies: in vivo.
Data set [2] is described as follows: AUC in Cynomolgus monkey at 5 mg/kg, iv. The following applies: plasma. The data set is classed as ADME, organism-based, Macaca fascicularis. Details: dose 5 mg/kg, route intravenous.
Data set [3] in a line: Oral bioavailability in Wistar rat at 50 mg/kg. It is filed as ADME, organism-based. The following applies: in vivo.
Data set [4] is described as follows: Cmax in Cynomolgus monkey at 5 mg/kg, iv. It is filed as ADME, organism-based, Macaca fascicularis. The arrangement: dose 5 mg/kg, route intravenous. The following applies: in vivo.
A short description of data set [5]: AUC in Cynomolgus monkey at 40 mg/kg, po. It is filed as ADME, organism-based, Macaca fascicularis. The arrangement: dose 40 mg/kg, route oral. The following applies: plasma.
The nature of data set [6]: Half life in CD1 mouse at 50 mg/kg, po. The arrangement: dose 50 mg/kg, route oral. The following applies: in vivo. The data set is classed as ADME, organism-based.
Data set [7] is described as follows: Drug excretion in healthy male after 24 to 48 hrs. It is filed as ADME, organism-based. The following applies: human, in vivo, read-out: Drug excretion.
The nature of data set [8]: Volume of distribution at steady state in Rhesus monkey at 5 mg/kg, iv. The arrangement: dose 5 mg/kg, route intravenous. The data set is classed as ADME, organism-based, Macaca mulatta. The following applies: in vivo, read-out: Vdss.
The nature of data set [9]: Oral bioavailability in Cynomolgus monkey at 40 mg/kg. The data set is classed as ADME, organism-based, Macaca fascicularis. The following applies: in vivo.
Data set [10] can be described thus: AUC in CD1 mouse at 50 mg/kg, po. It is filed as ADME, organism-based. The arrangement: dose 50 mg/kg, route oral. The following applies: plasma.
The nature of data set [11]: Oral bioavailability in Rhesus monkey at 40 mg/kg. The data set is classed as ADME, organism-based, Macaca mulatta. The following applies: in vivo.
Data set [12] in a line: Mean residence time in Cynomolgus monkey at 5 mg/kg, iv. It is filed as ADME, organism-based, Macaca fascicularis. The arrangement: dose 5 mg/kg, route intravenous. The following applies: in vivo.
The nature of data set [13]: Drug excretion in healthy male via biliary system into feces over 120 hrs. The data set is classed as ADME, tissue-based. The following applies: human, faeces, read-out: Drug excretion.
The test system of data set [14] is Rattus norvegicus. The data set is described as follows: Mean residence time in Wistar rat at 2 mg/kg, iv. The arrangement: dose 2 mg/kg, route intravenous. The following applies: in vivo. It is filed as ADME, organism-based.
The nature of data set [15]: Half life in Cynomolgus monkey at 5 mg/kg, iv. It is filed as ADME, organism-based, Macaca fascicularis. The arrangement: dose 5 mg/kg, route intravenous. The following applies: in vivo.
The nature of data set [16]: Clearance in Wistar rat at 2 mg/kg, iv. The data set is classed as ADME, organism-based. Details: dose 2 mg/kg, route intravenous. The following applies: in vivo.
The next data set in a line: in vivo. The following applies: rhesus monkey, iv, 5 mg/kg.
Data set [17] is described as follows: Drug excretion in healthy male urine after 72 hrs. It is filed as ADME, tissue-based. The following applies: human, read-out: Drug excretion.
A short description of data set [18]: Drug excretion in healthy male urine/feces after 96 hrs. The following applies: human, urine and faeces, read-out: Drug excretion. The data set is classed as ADME, tissue-based.
A short description of data set [19]: Mean residence time in Rhesus monkey at 5 mg/kg, iv. The data set is classed as ADME, organism-based, Macaca mulatta. Details: dose 5 mg/kg, route intravenous. The following applies: in vivo.
The subject of data set [20] is Rattus norvegicus. Put plainly: Half life in Wistar rat at 2 mg/kg, iv. The arrangement: dose 2 mg/kg, route intravenous. It is filed as ADME, organism-based. The following applies: in vivo.
Data set [21] in a line: AUC in Rhesus monkey at 40 mg/kg, po. The data set is classed as ADME, organism-based, Macaca mulatta. The following applies: plasma. The arrangement: dose 40 mg/kg, route oral.
A short description of data set [22]: Mean residence time in CD1 mouse at 50 mg/kg, po. It is filed as ADME, organism-based. Details: dose 50 mg/kg, route oral. The following applies: in vivo.
Data set [23] can be described thus: Volume of distribution at steady state in Cynomolgus monkey at 5 mg/kg, iv. It is filed as ADME, organism-based, Macaca fascicularis. Details: dose 5 mg/kg, route intravenous. The following applies: in vivo, read-out: Vdss.
The nature of data set [24]: AUC in Wistar rat at 2 mg/kg, iv. It is filed as ADME, organism-based. The arrangement: dose 2 mg/kg, route intravenous. The following applies: plasma.
Data set [25] can be described thus: Clearance in Cynomolgus monkey at 5 mg/kg, iv. The following applies: in vivo. The arrangement: dose 5 mg/kg, route intravenous. It is filed as ADME, organism-based, Macaca fascicularis.
Data set [26] in a line: AUC in Rhesus monkey at 5 mg/kg, iv. It is filed as ADME, organism-based, Macaca mulatta. The arrangement: dose 5 mg/kg, route intravenous. The following applies: plasma.
Data set [27] is described as follows: Cmax in Wistar rat at 50 mg/kg, po. Details: dose 50 mg/kg, route oral. The following applies: in vivo. The data set is classed as ADME, organism-based.
Data set [28] in a line: Cmax in Rhesus monkey at 5 mg/kg, iv. The following applies: in vivo. The arrangement: dose 5 mg/kg, route intravenous. It is filed as ADME, organism-based, Macaca mulatta.
Data set [29] in a line: AUC in Wistar rat at 50 mg/kg, po. It is filed as ADME, organism-based. The following applies: plasma. Details: dose 50 mg/kg, route oral.
The nature of data set [30]: Cmax in CD1 mouse at 50 mg/kg, po. It is filed as ADME, organism-based. The arrangement: dose 50 mg/kg, route oral. The following applies: in vivo.
Data set [31] in a line: Cmax in Wistar rat at 2 mg/kg, iv. Details: dose 2 mg/kg, route intravenous. It is filed as ADME, organism-based. The following applies: in vivo.
Data set [32] is described as follows: Inhibition of VEGF-stimulated HSMEC cell proliferation. It is filed as functional. The following applies: Homo sapiens.
Data set [33] is described as follows: Cmax in Rhesus monkey at 40 mg/kg, po. The following applies: in vivo. The arrangement: dose 40 mg/kg, route oral. The data set is classed as ADME, organism-based, Macaca mulatta.
The nature of data set [34]: Cmax in cynomolgus monkey at 40 mg/kg, po. Details: dose 40 mg/kg, route oral. The following applies: in vivo. The data set is classed as ADME, organism-based, Macaca fascicularis.
A short description of the next data set: clinical. The following applies: male, human, in vivo.
Data set [35] in a line: Antitumor activity against human H460 cells in xenograft model assessed as tumor growth inhibition ratio. It is filed as functional, NCI-H460.

Description for clinical: Terminal half life in healthy male
Description for in vivo: Half life in Rhesus monkey at 5 mg/kg, iv

On to `CCS(=O)(=O)O.COC(=O)c1ccc2c(c1)NC(=O)/C2=C(\Nc1ccc(N(C)C(=O)CN2CCN(C)CC2)cc1)c1ccccc1` [NINTEDANIB ESYLATE], for which the clearance in data set [1] is 30.2 mL/min/kg; in [16], 202 mL/min/kg; in data set [25] it was 37.5 mL/min/kg. Besides, the AUC in data set [2] worked out at 2260 ng·h/mL; in [5] it was 2390 ng·h/mL; in data set [10] it was 2720 ng·h/mL; in [21], 4440 ng·h/mL; in data set [24] it was 181 ng·h/mL; in data set [26], 2830 ng·h/mL. This molecule also came in with an AUC in data set [29] of 375 ng·h/mL. Besides, the bioavailability was 11.9% in [3], 13.2% in [9] and 23.8% in data set [11]. Also, the Cmax was determined as 1300 ng/mL in data set [4]; 105 ng/mL in data set [27]; 1090 ng/mL in data set [28]; 547 ng/mL in data set [30]; 124 ng/mL in data set [31]; 311 ng/mL in data set [33]. For the same molecule, in data set [34], the peak concentration (Cmax) amounted to 175 ng/mL. The half-life in [6] was 5.15 h; in data set [15], 5.95 h; in “in vivo” it was 7.09 h; in “clinical”, 13 h. In addition, in data set [7], the dose excreted amounted to 56.3%. In addition, the results for the Vd in data set [8] and in data set [23] were 10.4 L/kg and 8.64 L/kg, respectively. In addition, the mean residence time (MRT) worked out at 3.82 h in [12], 3.25 h in the data set on Rattus norvegicus [14], 5.7 h in data set [19] and 5.19 h in data set [22]. The dose excreted at 120 h in [13] came to 93.4%. In addition, the dose excreted at 72 h in [17] was found to be 0.7%. Also, in data set [18], the dose excreted at 96 h is 92.4%. In the data set on Rattus norvegicus [20], this molecule gave a t1/2 of 3.95 h. Further, the concentration for a half-maximal effect (EC50) in data set [32] is below 10 nM. In addition, the TGI in [35] is 75%.
For `CC(=O)O[C@@]12CO[C@@H]1C[C@H](O)[C@@]1(C)C(=O)[C@H](O)C3=C(C)[C@@H](OC(=O)[C@H](O)[C@@H](NC(=O)OC(C)(C)C)c4ccccc4)C[C@@](O)([C@@H](OC(=O)c4ccccc4)[C@H]21)C3(C)C.O.O.O` [DOCETAXEL], the inhibition of tumour growth (TGI) in data set [35] is on record as 66%.
